Laboratory results from patent publication US20260053800A1 (Veradermics, Incorporated, priority 2024, published 2026).

Tests used:
rat bone marrow = settings: in vivo; cited from earlier work
human lymphocytes = settings: cited from earlier work
[1] = cited from earlier work
Chinese hamster cells = settings: long exposure times; cited from earlier work
mouse bone marrow = settings: in vivo; cited from earlier work
mice = settings: dietary up to 2 years, cited from earlier work
[2] = Case studies, oral minoxidil in male patients with androgenetic alopecia (blood pressure, heart rate, hair growth); settings: person
rat hepatocyte = settings: cited from earlier work
[3] = cited from earlier work; remark: listed apart in the source
[4] = hypertensive patients; intravenous infusion; cited from earlier work
rats = settings: two-year study, oral administration; cited from earlier work

## Nc1cc(N2CCCCC2)nc(N)[n+]1[O-] [minoxidil]
Rat bone marrow
  mutagenicity: not mutagenic
Human lymphocytes
  cytogenetic assay result: negative
[1]; chronic therapy for severe hypertension, initially
  temporary decrease in hematocrit, hemoglobin, and erythrocyte count: approximately 7%
[1]; soon after starting therapy
  patients exhibiting ECG alterations of T waves: approximately 60%
Chinese hamster cells
  cytogenetic assay result: equivocal
Mouse bone marrow
  mutagenicity: not mutagenic
mice; females, all dose levels (10, 25, and 63 mg/kg/day)
  incidence of malignant lymphomas: increased incidence of malignant lymphomas in females
mice; males, 63 mg/kg/day
  incidence of hepatic nodules: increased incidence of hepatic nodules in males
[2]; 0.625 mg four times a day
  adverse events: No unwanted hair growth or other adverse events were noticed
  reductions in blood pressure: did not experience significant reductions in blood pressure
[2]; 1.25 mg QID
  adverse events: No unwanted hair growth or other adverse events, including any cardiac effects, were noticed
Rat hepatocyte
  mutagenicity: not mutagenic
[3]; normotensive healthy volunteers, 2.5 mg, 5 mg, or 10 mg oral
  effect on blood pressure: little effect on blood pressure
[3]; primarily conjugation with glucuronic acid
  fraction of oral dose metabolized: About 90%
[4]
  steady state plasma concentration associated with significant (>5 beats per minute) changes in heart rate: above 20 ng/mL
rats
  carcinogenicity findings: no positive findings
